Test results taken from the NIST ThermoML archive (doi:10.1021/je0301895).
Numbers after ± are expanded uncertainties.

Tests used:
[1] = 298.15 K; 101.33 kPa; Liquid
[2] = Solid-liquid equilibrium temperature; details: 101.3 kPa; Crystal
[3] = xn = mol fraction of the nth substance listed; details: 298.15 K, 101 kPa, Liquid

CCCCCCCCN [1-octanamine]
Details	Solid-liquid equilibrium temperature [K]	mass density [kg/m3]
[1]	–	779.95 ± 0.84
[2]	273.37 ± 0.4	–

CCCCCCCCN [1-octanamine] + CCCCCCCCCCCO
[3]
Details	excess molar volume [m3/mol]
x2 = 0.0752	-2.147e-07 ± 2.1e-08
x2 = 0.1043	-2.984e-07 ± 2.2e-08
x2 = 0.1334	-3.833e-07 ± 2.2e-08
x2 = 0.2069	-5.724e-07 ± 2.3e-08
x2 = 0.3217	-8.29e-07 ± 2.5e-08
x2 = 0.4007	-9.437e-07 ± 2.6e-08
x2 = 0.4491	-9.846e-07 ± 2.6e-08
x2 = 0.4941	-1.008e-06 ± 2.6e-08
x2 = 0.5463	-1.008e-06 ± 2.6e-08
x2 = 0.5958	-9.803e-07 ± 2.6e-08
x2 = 0.639	-9.391e-07 ± 2.6e-08
x2 = 0.6894	-8.58e-07 ± 2.5e-08
x2 = 0.7458	-7.411e-07 ± 2.4e-08
x2 = 0.7961	-6.06e-07 ± 2.4e-08
x2 = 0.873	-4.122e-07 ± 2.2e-08
x2 = 0.9158	-2.804e-07 ± 2.2e-08

CCCCCCCCN [1-octanamine] + CCCCCCCCCCO
[3]
Details	excess molar volume [m3/mol]
x2 = 0.0791	-2.401e-07 ± 2.1e-08
x2 = 0.1302	-3.963e-07 ± 2.2e-08
x2 = 0.2056	-6.005e-07 ± 2.4e-08
x2 = 0.2788	-7.66e-07 ± 2.5e-08
x2 = 0.3263	-8.612e-07 ± 2.5e-08
x2 = 0.3863	-9.584e-07 ± 2.6e-08
x2 = 0.422	-1.002e-06 ± 2.6e-08
x2 = 0.4623	-1.03e-06 ± 2.6e-08
x2 = 0.5138	-1.042e-06 ± 2.6e-08
x2 = 0.5525	-1.039e-06 ± 2.6e-08
x2 = 0.5811	-1.023e-06 ± 2.6e-08
x2 = 0.6153	-9.952e-07 ± 2.6e-08
x2 = 0.6452	-9.534e-07 ± 2.6e-08
x2 = 0.6956	-8.646e-07 ± 2.5e-08
x2 = 0.7565	-7.349e-07 ± 2.4e-08
x2 = 0.8463	-4.965e-07 ± 2.3e-08
x2 = 0.9025	-3.208e-07 ± 2.2e-08
x2 = 0.97	-1.278e-07 ± 2.1e-08

CCCCCCCCN [1-octanamine] + CCCCCCCCCO
[3]
Details	excess molar volume [m3/mol]
x2 = 0.0489	-1.701e-07 ± 2.1e-08
x2 = 0.1572	-4.742e-07 ± 2.3e-08
x2 = 0.2155	-6.354e-07 ± 2.4e-08
x2 = 0.2763	-7.661e-07 ± 2.5e-08
x2 = 0.3283	-8.704e-07 ± 2.5e-08
x2 = 0.356	-9.277e-07 ± 2.6e-08
x2 = 0.4125	-1.005e-06 ± 2.6e-08
x2 = 0.4566	-1.043e-06 ± 2.6e-08
x2 = 0.4998	-1.055e-06 ± 2.6e-08
x2 = 0.5326	-1.057e-06 ± 2.6e-08
x2 = 0.5732	-1.049e-06 ± 2.6e-08
x2 = 0.6064	-1.016e-06 ± 2.6e-08
x2 = 0.637	-9.761e-07 ± 2.6e-08
x2 = 0.6602	-9.511e-07 ± 2.6e-08
x2 = 0.7321	-8.074e-07 ± 2.5e-08
x2 = 0.7905	-6.629e-07 ± 2.4e-08
x2 = 0.8753	-4.313e-07 ± 2.3e-08
x2 = 0.961	-1.661e-07 ± 2.1e-08

CCCCCCCCN [1-octanamine] + CCCCCCCCO
[3]
Details	excess molar volume [m3/mol]
x2 = 0.043	-1.921e-07 ± 2.1e-08
x2 = 0.13	-4.625e-07 ± 2.3e-08
x2 = 0.2358	-7.264e-07 ± 2.4e-08
x2 = 0.3041	-8.581e-07 ± 2.5e-08
x2 = 0.347	-9.393e-07 ± 2.6e-08
x2 = 0.4158	-1.024e-06 ± 2.6e-08
x2 = 0.4571	-1.062e-06 ± 2.6e-08
x2 = 0.5174	-1.071e-06 ± 2.6e-08
x2 = 0.554	-1.068e-06 ± 2.6e-08
x2 = 0.5877	-1.052e-06 ± 2.6e-08
x2 = 0.6385	-1.012e-06 ± 2.6e-08
x2 = 0.709	-9.034e-07 ± 2.5e-08
x2 = 0.7589	-8.079e-07 ± 2.5e-08
x2 = 0.875	-5.102e-07 ± 2.3e-08
x2 = 0.929	-3.207e-07 ± 2.2e-08
x2 = 0.992	-7.24e-08 ± 2e-08

CCCCCCCCCCCO [1-undecanol]
Details	Solid-liquid equilibrium temperature [K]	mass density [kg/m3]
[1]	–	829.34 ± 0.28
[2]	289.63 ± 0.8	–

CCCCCCCCCCO [decan-1-ol]
Details	Solid-liquid equilibrium temperature [K]	mass density [kg/m3]
[1]	–	826.64 ± 0.28
[2]	278.67 ± 0.4	–

CCCCCCCCCO [nonan-1-ol]
Details	Solid-liquid equilibrium temperature [K]	mass density [kg/m3]
[1]	–	824.6 ± 0.28
[2]	268.1 ± 0.4	–

CCCCCCCCO [octan-1-ol]
Details	Solid-liquid equilibrium temperature [K]	mass density [kg/m3]
[1]	–	822.21 ± 0.28
[2]	258.03 ± 0.4	–
